Data from ChEMBL document CHEMBL1201862, “PubChem BioAssay data set” (2004).
Calls of active or inactive are those of the source.

Key:
[1] = molecular target: T1, Tyrosine-protein phosphatase non-receptor type 22 (Homo sapiens, UniProt Q9Y2R2); assay: LYP (PTPN22) phosphatase inhibitor potency, SAR follow-up, biochemical, pCAP fluorogenic substrate, fluorescence, set 3 (AID 449727); assay type: functional
T1 sequence (Q9Y2R2 whole entry): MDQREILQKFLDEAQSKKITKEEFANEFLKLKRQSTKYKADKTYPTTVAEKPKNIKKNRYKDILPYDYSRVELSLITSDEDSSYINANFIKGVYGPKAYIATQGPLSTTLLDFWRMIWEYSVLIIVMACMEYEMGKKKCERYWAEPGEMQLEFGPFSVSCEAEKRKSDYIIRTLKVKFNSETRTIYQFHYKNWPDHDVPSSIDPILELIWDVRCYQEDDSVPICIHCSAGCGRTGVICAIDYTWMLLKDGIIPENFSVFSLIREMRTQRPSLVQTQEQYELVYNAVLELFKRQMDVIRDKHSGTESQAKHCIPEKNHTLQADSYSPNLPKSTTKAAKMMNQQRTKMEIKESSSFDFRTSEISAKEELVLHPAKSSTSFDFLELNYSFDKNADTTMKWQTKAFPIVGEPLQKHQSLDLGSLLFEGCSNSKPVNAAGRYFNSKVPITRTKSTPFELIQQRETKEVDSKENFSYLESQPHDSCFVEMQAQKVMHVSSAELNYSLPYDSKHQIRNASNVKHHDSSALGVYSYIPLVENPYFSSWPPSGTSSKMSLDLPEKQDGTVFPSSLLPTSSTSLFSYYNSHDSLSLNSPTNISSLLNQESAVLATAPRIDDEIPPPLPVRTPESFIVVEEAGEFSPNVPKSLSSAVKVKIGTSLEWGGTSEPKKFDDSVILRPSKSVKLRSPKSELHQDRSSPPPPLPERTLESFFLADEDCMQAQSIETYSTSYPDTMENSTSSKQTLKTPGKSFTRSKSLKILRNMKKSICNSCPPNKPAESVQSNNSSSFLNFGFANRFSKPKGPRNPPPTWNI

[2] = molecular target: T1, Tyrosine-protein phosphatase non-receptor type 22; assay: SAR LYP1 Fluorescent Assay using OMFP substrate for In Vitro dose response studies - Set 3. [Related pubchem assays (depositor defined):AID1779, AID1784, AID2140, AID2686]; assay type: functional
[3] = molecular target: G-protein coupled receptor 55 (Homo sapiens, UniProt Q9Y2T6); assay: GPR55 antagonists, SAR follow-up, counter-screen for GPR35 antagonist project, imaging, image-based (AID 2397); assay type: functional
[4] = molecular target: Tyrosine-protein phosphatase non-receptor type 12 (Homo sapiens, UniProt Q05209); assay: SAR Selectivity Analysis of small molecule inhibitors of PEST using pCAP in a fluorescence assay. [Related pubchem assays (depositor defined):AID1779, AID1784, AID2135]; assay type: functional
[5] = molecular target: T2, Tyrosine-protein phosphatase non-receptor type 7 (Homo sapiens, UniProt P35236); assay: HePTP (PTPN7) phosphatase inhibitor potency, SAR follow-up, biochemical, set 2 (AID 449736); assay type: functional
T2 sequence (P35236 whole entry): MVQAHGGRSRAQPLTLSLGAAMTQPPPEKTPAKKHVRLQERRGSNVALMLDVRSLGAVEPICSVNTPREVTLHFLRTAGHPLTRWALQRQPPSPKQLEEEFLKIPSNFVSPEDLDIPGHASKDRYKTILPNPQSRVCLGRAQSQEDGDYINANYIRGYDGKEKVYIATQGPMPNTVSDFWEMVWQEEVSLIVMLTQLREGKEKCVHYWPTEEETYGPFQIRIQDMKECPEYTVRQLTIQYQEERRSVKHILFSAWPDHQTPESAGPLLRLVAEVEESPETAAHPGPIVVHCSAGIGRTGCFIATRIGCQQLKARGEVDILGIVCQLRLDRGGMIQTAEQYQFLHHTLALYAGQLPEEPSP

[6] = molecular target: T3, G-protein coupled receptor 35 (Homo sapiens, UniProt Q9HC97); assay: SAR Analysis for the identification of Selective Antagonists of ERK1/2 Activity in GPR35-Overexpressing U2OS Cells. [Related pubchem assays: 2079, 2058 ]; assay type: functional, cell-based
[7] = molecular target: T3, G-protein coupled receptor 35; assay: GPR35 antagonists blocking zaprinast-driven arrestin recruitment, primary screen, imaging, U2OS, beta-arrestin-GFP, zaprinast agonist (AID 2058); assay type: functional;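 note: antagonist potency meaning inhibition of agonist-induced arrestin redistribution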
Integrin alpha-4 = Integrin alpha-4 (Homo sapiens, UniProt P13612); assay: VLA-4 integrin allosteric ligands, SAR follow-up, cell-based, LIBS antibody binding, flow cytometry (AID 488791); assay type: functional
[8] = molecular target: T4, Small ubiquitin-related modifier 1 (Homo sapiens, UniProt P63165); assay: inhibitors of SUMO1 peptide binding, dose response, biochemical, fluorescence polarization, uHTS hits (AID 624382); assay type: functional; settings: read-out: IC50_Mean
[9] = molecular target: DNA damage-inducible transcript 3 protein (Mus musculus, UniProt P35639); assay type: functional, Cricetulus griseus
[10] = growth suppression of PTEN-null colon cells, dose response, cell-based, HCT116 PTEN knockout (AID 1047); assay type: functional;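 note: HCT116 colon tumor cells with PTEN knocked out; cells exposed to compound for 60 hours before readout; potency for loss of cell viability measured by luminescence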
[11] = growth suppression of beta-catenin-knockout colon cells, dose response, cell-based, HCT116, human colon tumor (AID 1045); assay type: functional;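 note: HCT116 colon tumor cells with beta catenin knocked out; cells exposed to compound for 60 hours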
[12] = molecular target: T4, Small ubiquitin-related modifier 1; assay: inhibitors of SUMO1 partner interactions, dose response, biochemical, FRET (AID 624383); assay type: functional; settings: read-out: IC50_Mean
[13] = molecular target: Induced myeloid leukemia cell differentiation protein Mcl-1 (Homo sapiens, UniProt Q07820); assay type: functional
[14] = molecular target: T5, Ubiquitin-conjugating enzyme E2 N (Homo sapiens, UniProt P61088); assay type: functional
T5 sequence (P61088 whole entry): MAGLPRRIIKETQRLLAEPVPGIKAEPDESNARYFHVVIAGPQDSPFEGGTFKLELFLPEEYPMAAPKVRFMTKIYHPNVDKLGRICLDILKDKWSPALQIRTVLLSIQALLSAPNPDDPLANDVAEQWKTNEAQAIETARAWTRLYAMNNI

cells = assay type: functional
[15] = molecular target: T6, High affinity choline transporter 1 (Homo sapiens, UniProt Q9GZV3); assay: CHT inhibitors, dose response, cell-based, 5-point CRC, membrane potential dye (AID 504840); assay type: functional
T6 sequence (Q9GZV3 whole entry): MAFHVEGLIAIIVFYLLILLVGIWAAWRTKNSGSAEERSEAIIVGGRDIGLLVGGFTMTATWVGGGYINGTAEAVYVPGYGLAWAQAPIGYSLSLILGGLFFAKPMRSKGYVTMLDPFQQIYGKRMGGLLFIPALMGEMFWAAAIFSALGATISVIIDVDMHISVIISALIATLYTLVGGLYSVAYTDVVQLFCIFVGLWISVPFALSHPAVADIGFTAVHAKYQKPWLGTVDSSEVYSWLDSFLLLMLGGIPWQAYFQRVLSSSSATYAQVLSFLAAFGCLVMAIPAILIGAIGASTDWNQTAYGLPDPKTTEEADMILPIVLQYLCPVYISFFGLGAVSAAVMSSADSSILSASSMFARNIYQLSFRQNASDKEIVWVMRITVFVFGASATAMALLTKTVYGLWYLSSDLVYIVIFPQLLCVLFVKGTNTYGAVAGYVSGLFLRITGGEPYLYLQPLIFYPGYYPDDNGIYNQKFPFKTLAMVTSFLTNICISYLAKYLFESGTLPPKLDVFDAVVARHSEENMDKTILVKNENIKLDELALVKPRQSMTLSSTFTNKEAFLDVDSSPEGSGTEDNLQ

[16] = molecular target: T5, Ubiquitin-conjugating enzyme E2 N; assay type: functional; remark: listed apart in the source
[17] = THP-1 cell cytotoxicity, dose response, cytotoxicity control for non-replicating M. tuberculosis project (AID 489025); assay type: functional
Bcl-2-related protein A1 = Bcl-2-related protein A1 (Mus musculus, UniProt Q07440); assay type: functional;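 note: confirmatory dose–response counterscreen on Bfl-1, used to check hits from a UBC13 polyubiquitin inhibitor campaign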
[18] = molecular target: Type-1 angiotensin II receptor (Homo sapiens, UniProt P30556); assay: AT1 receptor agonists, dose response, selectivity assay for APJ receptor agonist project, cell-based, uHTS hits (AID 488865); assay type: functional;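 note: beta-arrestin recruitment to AT1 measured by enzyme fragment complementation luminescence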
Cytochrome P450 3A4 = Cytochrome P450 3A4 (Homo sapiens, UniProt P08684);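 note: CYP3A4 tested as one member of a cytochrome P450 panel screen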
Cytochrome P450 2C19 = Cytochrome P450 2C19 (Homo sapiens, UniProt P33261); assay: Cytochrome panel assay with activity outcomes. Panel member name: p450-cyp2c19 Compounds with AC50 equal or less than 10 uM are considered active; assay type: functional; settings: read-out: AC50
Cytochrome P450 2C19, sequence (P33261 whole entry): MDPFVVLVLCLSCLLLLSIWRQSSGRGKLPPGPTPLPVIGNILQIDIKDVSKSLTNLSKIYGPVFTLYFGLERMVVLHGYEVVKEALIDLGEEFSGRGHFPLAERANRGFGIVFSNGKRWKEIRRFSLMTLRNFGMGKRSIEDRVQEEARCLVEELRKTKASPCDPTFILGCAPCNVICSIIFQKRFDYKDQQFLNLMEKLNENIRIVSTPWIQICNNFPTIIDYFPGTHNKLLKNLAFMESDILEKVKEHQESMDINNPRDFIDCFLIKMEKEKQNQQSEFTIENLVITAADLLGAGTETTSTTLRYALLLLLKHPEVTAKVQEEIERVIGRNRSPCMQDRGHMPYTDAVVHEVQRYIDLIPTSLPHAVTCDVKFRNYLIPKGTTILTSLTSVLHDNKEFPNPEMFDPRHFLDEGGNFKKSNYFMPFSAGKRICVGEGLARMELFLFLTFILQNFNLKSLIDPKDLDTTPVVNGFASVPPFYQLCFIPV

T4 sequence (P63165 whole entry): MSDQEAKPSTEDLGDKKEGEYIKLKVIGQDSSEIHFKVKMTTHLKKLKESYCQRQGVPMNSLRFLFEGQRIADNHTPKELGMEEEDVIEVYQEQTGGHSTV
T3 sequence (Q9HC97 whole entry): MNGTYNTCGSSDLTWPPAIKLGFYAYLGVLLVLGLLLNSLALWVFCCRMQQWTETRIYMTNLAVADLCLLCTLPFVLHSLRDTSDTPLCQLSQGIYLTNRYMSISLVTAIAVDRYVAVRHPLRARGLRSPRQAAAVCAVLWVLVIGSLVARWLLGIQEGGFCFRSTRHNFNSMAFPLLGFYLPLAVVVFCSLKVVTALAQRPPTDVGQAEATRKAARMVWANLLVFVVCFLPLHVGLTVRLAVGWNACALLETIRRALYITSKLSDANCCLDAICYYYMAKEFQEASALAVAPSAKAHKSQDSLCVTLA
Induced myeloid leukemia cell differentiation protein Mcl-1, sequence (Q07820 whole entry): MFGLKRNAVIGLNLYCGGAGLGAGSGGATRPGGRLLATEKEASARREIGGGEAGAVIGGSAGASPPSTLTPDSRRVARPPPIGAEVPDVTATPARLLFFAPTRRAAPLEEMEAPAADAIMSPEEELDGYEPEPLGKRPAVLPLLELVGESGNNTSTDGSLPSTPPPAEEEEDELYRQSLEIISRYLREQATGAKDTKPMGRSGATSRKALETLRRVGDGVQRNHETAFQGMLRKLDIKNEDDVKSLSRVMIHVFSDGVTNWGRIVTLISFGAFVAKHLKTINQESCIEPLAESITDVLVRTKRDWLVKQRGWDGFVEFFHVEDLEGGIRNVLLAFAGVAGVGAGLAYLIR
Tyrosine-protein phosphatase non-receptor type 12, sequence (Q05209 whole entry): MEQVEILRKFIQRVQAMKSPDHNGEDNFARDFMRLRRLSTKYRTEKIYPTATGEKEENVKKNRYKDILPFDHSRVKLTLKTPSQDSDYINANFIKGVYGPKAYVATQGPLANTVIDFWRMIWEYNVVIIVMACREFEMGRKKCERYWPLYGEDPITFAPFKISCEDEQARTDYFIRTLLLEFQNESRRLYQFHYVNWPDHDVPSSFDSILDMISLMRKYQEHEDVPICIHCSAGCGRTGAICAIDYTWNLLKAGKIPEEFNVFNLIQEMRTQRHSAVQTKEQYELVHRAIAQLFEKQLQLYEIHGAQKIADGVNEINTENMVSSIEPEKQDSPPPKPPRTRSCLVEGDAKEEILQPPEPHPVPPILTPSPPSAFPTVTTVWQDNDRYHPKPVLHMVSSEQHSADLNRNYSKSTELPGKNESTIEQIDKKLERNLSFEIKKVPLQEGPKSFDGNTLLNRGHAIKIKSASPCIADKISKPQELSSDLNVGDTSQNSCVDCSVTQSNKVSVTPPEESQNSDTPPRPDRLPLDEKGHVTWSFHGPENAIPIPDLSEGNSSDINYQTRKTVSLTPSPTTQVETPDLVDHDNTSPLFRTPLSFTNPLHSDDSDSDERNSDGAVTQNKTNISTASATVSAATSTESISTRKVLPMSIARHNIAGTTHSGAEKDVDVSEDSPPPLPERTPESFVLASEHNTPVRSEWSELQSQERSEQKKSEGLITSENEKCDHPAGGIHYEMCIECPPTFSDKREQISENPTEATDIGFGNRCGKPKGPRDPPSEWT
Type-1 angiotensin II receptor, sequence (P30556 whole entry, the tested form may be a part): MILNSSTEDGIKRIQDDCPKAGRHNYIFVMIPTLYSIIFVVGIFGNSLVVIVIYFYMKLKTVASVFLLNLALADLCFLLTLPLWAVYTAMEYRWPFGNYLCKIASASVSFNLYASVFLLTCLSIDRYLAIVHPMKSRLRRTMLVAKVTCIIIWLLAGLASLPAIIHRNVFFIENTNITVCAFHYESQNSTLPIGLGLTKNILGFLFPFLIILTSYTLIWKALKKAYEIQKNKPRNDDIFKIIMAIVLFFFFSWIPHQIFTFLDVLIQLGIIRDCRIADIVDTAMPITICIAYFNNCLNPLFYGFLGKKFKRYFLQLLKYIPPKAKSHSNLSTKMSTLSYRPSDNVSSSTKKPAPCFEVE
Bcl-2-related protein A1, sequence (Q07440 whole entry, the tested form may be a part): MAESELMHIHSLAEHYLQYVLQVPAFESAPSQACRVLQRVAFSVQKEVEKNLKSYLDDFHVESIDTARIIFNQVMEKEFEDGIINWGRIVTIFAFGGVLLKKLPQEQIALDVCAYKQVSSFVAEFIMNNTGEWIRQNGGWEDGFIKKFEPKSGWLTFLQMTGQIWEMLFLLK
Integrin alpha-4, sequence (P13612 whole entry): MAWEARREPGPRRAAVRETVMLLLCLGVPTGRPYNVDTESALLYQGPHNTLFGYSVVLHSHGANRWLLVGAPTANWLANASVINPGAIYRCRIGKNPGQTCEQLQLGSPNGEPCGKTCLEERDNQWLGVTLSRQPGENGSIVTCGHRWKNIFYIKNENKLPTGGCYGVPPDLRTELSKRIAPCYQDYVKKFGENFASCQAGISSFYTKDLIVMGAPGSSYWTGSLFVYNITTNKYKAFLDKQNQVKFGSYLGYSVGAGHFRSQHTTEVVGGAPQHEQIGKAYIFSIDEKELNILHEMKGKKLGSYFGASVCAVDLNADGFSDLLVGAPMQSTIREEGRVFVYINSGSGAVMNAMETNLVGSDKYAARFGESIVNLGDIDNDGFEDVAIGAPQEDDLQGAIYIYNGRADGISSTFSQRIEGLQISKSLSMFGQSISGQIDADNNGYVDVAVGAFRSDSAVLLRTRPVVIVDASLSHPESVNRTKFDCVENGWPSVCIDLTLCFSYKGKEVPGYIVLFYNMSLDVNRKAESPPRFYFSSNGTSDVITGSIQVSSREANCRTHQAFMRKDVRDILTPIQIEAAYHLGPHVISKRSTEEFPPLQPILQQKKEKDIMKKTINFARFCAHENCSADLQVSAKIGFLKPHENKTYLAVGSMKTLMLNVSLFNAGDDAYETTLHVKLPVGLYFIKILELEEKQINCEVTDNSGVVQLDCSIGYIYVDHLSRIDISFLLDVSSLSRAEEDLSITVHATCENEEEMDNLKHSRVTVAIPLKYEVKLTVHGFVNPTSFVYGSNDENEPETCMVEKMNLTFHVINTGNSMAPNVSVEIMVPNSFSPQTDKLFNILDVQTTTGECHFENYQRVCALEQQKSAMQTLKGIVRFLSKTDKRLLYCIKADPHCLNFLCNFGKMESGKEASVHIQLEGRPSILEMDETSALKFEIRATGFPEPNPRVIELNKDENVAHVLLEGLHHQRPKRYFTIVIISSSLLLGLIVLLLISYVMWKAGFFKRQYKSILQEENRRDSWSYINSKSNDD
DNA damage-inducible transcript 3 protein, sequence (P35639 whole entry): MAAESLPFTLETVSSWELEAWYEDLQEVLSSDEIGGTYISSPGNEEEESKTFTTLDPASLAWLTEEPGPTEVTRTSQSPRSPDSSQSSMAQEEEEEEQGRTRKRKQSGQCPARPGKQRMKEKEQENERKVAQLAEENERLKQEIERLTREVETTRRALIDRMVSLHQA
G-protein coupled receptor 55, sequence (Q9Y2T6 whole entry): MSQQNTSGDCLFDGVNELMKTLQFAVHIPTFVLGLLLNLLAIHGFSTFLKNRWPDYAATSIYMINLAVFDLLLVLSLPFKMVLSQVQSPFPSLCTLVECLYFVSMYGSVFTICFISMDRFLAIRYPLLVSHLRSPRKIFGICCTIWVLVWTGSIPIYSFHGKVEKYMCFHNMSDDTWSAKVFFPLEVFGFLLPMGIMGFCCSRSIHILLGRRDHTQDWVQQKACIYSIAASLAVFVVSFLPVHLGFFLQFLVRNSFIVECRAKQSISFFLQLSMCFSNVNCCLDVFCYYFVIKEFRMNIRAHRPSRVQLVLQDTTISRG
Cytochrome P450 3A4, sequence (P08684 whole entry): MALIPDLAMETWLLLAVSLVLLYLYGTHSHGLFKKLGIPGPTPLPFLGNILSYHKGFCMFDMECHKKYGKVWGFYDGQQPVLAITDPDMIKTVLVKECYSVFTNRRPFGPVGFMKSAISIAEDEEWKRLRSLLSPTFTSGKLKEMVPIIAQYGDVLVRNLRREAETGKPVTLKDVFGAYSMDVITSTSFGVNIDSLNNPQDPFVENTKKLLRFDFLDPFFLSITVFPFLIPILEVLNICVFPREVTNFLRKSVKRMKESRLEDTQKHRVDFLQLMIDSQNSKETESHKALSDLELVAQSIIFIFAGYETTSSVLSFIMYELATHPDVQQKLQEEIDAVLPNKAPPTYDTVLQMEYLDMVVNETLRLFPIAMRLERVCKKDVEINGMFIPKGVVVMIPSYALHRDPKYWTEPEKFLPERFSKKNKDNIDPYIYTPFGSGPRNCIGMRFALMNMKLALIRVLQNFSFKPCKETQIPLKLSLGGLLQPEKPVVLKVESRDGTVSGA

For `COc1cccc(/C=C2\SC(=S)N(CCCC(=O)Nc3ccc(C(=O)O)cc3)C2=O)c1`, the IC50 [1] was > 100 µM (inactive), the IC50 [2] was > 100 µM (inactive) and the IC50 [3] was > 32 µM (inactive). The IC50 [4] was 32.3 µM (active), the IC50 [5] was 8.56 µM (active) and the IC50 [6] was 0.691 µM (active). For the same molecule, the IC50 [7] was < 0.5 µM (active).

For `Cc1ccc(NC(=O)c2cc(N3C(=O)CCC3=O)ccc2N2CCOCC2)cc1`, the EC50 (Integrin alpha-4) was 16.4 µM (active).

For `Fc1cc(F)c2nc(Nc3nc4cc5c(cc4s3)OCO5)sc2c1`, the IC50 [8] was > 66.6 µM (inactive), the “Absolute IC50 (CHOP)” value [9] was 10 µM and the EC50 [10] was 18.6 µM (active). For the same molecule, the EC50 [11] was 17.3 µM (active), the IC50 [12] was 1.53 µM (active) and the IC50 [13] was 1.12 µM (active).

For `COc1ccc(C(CNC(=O)c2cccc(NS(=O)(=O)c3ccc(C)c(F)c3)c2)N2CCCC2)cc1` (stereo not drawn), the IC50 [14] was 11.7 µM (active), the IC50 (cells) was 38 µM (active) and the IC50 [15] was 15.8 µM (active). For the same molecule, the IC50 [16] was 15.3 µM (active), the CC50 [17] was > 40 µM (active) and the IC50 (Bcl-2-related protein A1) was > 20 µM (inactive).

With `Clc1ccccc1CSc1nnc(-c2ccncc2)o1` the EC50 [18] was > 100 µM (inactive), the AC50 (Cytochrome P450 3A4) was 20 µM (inconclusive) and the AC50 (Cytochrome P450 2C19) was 0.126 µM (inconclusive).
